According to patent publication US11976083B2, “Inhibitors of peptidylarginine deiminases” (Gilead Sciences, Inc., priority 2020, dated 2024):

Molecular target: T1, human PAD4 (Homo sapiens, UniProt Q9UM07)
T1 construct: human PAD4 (NM_012387), A2-P663, was PCR amplified; His-SUMO (N, cleaved yes); made in house; host or cells: E. coli BL21(DE3)
Experiment: In vitro PAD4 BAEE biochemical assay
Conditions: BAEE substrate 3 mM, 5 nM PAD4, 2 mM calcium chloride; geometric mean of multiple experiments
Outline: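 Recombinant human PAD4 (5 nM final) with 2 mM CaCl2 was preincubated with compound 30 min at 25 °C in MOPS buffer pH 7.6, then reacted with 3 mM BAEE for 2 h at 25 °C. After EDTA stop, released ammonia was detected by o-phthalaldehyde/DTT fluorescence (ex 405/em 535 nm); IC50 from four-parameter fit, geometric mean.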

T1 sequence (Q9UM07 2-663): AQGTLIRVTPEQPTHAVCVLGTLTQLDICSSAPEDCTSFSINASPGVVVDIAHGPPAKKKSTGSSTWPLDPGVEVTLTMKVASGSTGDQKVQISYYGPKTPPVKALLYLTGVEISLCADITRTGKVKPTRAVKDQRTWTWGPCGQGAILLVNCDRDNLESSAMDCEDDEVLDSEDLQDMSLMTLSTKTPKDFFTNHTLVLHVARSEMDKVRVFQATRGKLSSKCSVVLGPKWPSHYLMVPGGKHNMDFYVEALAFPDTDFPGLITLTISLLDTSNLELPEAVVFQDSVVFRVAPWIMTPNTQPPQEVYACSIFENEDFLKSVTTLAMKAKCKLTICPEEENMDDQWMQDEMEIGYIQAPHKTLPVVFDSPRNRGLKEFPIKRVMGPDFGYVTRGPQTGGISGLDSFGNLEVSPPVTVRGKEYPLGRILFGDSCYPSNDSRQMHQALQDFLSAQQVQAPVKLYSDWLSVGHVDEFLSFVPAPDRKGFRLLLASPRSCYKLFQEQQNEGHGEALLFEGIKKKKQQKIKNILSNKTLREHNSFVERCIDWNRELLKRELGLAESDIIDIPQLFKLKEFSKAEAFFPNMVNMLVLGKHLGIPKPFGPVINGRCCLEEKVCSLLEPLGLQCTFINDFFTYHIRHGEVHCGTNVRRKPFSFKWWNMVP

Row | IC50 | SMILES
1 | 31 nM | [2H]C([2H])([2H])O[C@@H]1CCN(C(=O)c2cc(OC)c3c(c2)nc(-c2cc4ccc5nc4n2CC(F)(F)CCC[C@@H]2C[C@H]2C(=O)N[C@@H]5C)n3C)C[C@@H]1N [Example 637, (2~{R},5~{R},7~{R})-14-[5-[(3~{S},4~{R})-3-amino-4-(trideuteriomethoxy)piperidine-1-carbonyl]-7-methoxy-1-methyl-benzimidazol-2-yl]-11,11-difluoro-2-methyl-3,13,19-triazatetracyclo[11.5.2.0^ {5,7}.0^{16,20}] icosa-1(19),14,16(20), 17-tetraen-4-one]
2 | 37 nM | COc1cc(C(=O)N2C[C@H](N)[C@@H]3CC[C@H]2C3)cc2nc(-c3cc4ccc5nc4n3CCCCCC(C)(C)C(=O)N[C@@H]5C)n(C)c12 [Example 443, (10~{R})-16-[5-[(1~{S},4~{R},5~{})-4-amino-2-azabicyclo[3.2.1]octane-2-carbonyl]-7-methoxy-1-methyl-benzimidazol-2-yl]-7,7,10-trimethyl-1,9,18-triazatricyclo[9.5.2.0^{14,17}]octadeca-11(18),12,14(17),15-tetraen-8-one]
3 | 62 nM | CCc1c(-c2cc3ccc4nc3n2CCCCCCC(C)(C)C(=O)N[C@@H]4C)nn2cc(C(=O)N3CCC[C@@H](N)C3)ccc12 [Example 237, (11~{R})-17-[6-[(3~{R})-3-aminopiperidine-1-carbonyl]-3-ethyl-pyrazolo[1,5-a]pyridin-2-yl]-8,8,11-trimethyl-1,10,19-triazatricyclo[10.5.2.0^{15,18}]nonadeca-12(19),13,15(18),16-tetraen-9-one]
4 | 21 nM | C[C@H]1NC(=O)c2ccc(Cl)nc2CCCCCn2c(-c3nc4cc(C(=O)N5C[C@H](N)[C@@H]6CC[C@H]5C6)cc(F)c4n3C)cc3ccc1nc32 [Example 469, (2~{R})-17-[5-[(1~{S),4~{R},5~{R})-4-amino-2-azabicyclo[3.2.1]octane-2-carbonyl]-7-fluoro-1-methyl-benzimidazol-2-yl]-8-chloro-2-methyl-3,9,16,22-tetrazatetracyclo[14.5.2.0^{5,10).0^ {19,23)]tricosa-1(21),5(10),6,8,17,19,22-heptaen-4-one]
5 | 74 nM | COc1cc(C(=O)N2[C@H]3CC[C@@H]2[C@H](N)C3)cc2nc(-c3cc4ccc5nc4n3CCCCCCCC(=O)NC5(C)C)n(C)c12 [Example 251, 17-[5-[(1~{R},2~{R},4~{S})-2-amino-7-azabicyclo[2.2.1]heptane-7-carbonyl]-7-methoxy-1-methyl-benzimidazol-2-yl]-11,11-dimethyl-1,10,19-triazatricyclo[10.5.2.0^{15,18}]nonadeca-12(19),13,15(18),16-tetraen-9-one]
6 | 287 nM | COc1cc(C(=O)N[C@H]2CNC[C@@H](C)C2)cc2nc(-c3cc4ccc5nc4n3CCCCCCC(C)(C)C(=O)N[C@@H]5C)n(C)c12 [Example 68, 7-methoxy-1-methyl-~{N}-[(3~{R},5~{S})-5-methyl-3-piperidyl]-2-[(11~{R})-8,8,11-trimethyl-9-oxo-1,10,19-triazatricyclo[10.5.2.0^{15,18}]nonadeca-12(19),13,15(18),16-tetraen-17-yl]benzimidazole-5-carboxamide]
7 | 62 nM | COCCn1c(-c2cc3ccc4nc3n2CCCCCCC(C)(C)C(=O)N[C@@H]4C)nc2cc(C(=O)N[C@H]3CNCC[C@@H]3F)c(F)cc21 [Example 417, 6-fluoro-~{N}-[(3~{S},4~{S})-4-fluoro-3-piperidyl]-1-(2-methoxyethyl)-2-[(11~{R})-8,8,11-trimethyl-9-oxo-1,10,19-triazatricyclo[10.5.2.0^{15,18}]nonadeca-12(19),13,15(18),16-tetraen-17-yl]benzimidazole-5-carboxamide]
8 | 17 nM | C[C@H]1NC(=O)c2c(ccc3cccnc23)CCCCCn2c(-c3nc4cc(C(=O)N5C[C@H](N)[C@@H]6CC[C@H]5C6)cc(F)c4n3C3CC3)cc3ccc1nc32 [Example 841, (2~{R})-21-[5-[(1~{S},4~{R}, 5~{R})-4-amino-2-azabicyclo [3.2.1]octane-2-carbonyl]-1-cyclopropyl-7-fluoro-benzimidazol-2-yl]-2-methyl-3,7,20,26-tetrazapentacyclo [18.5.2.0^{5,14}.0^{6,1 1}.0^{23,27}]heptacosa-1(26),5(14),6(11),7,9,12,21, 23(27),24-nonaen-4-one]
9 | 25 nM | C[C@@H]1[C@H](N)CCCN1C(=O)c1cc(F)c2c(c1)nc(-c1cc3ccc4nc3n1CCCCCc1ncc3ccccc3c1C(=O)N[C@@H]4C)n2C1CC1 [Example 748, (2~{R})-21-[5-[(2~{R},3~ {R})-3-amino-2-methyl-piperidine-1-carbonyl]-1-cyclopropyl-7-fluoro-benzimidazol-2-yl]-2-methyl-3,13,20,26-tetrazapentacyclo[18.5.2.0^ {5,14}.0^{6,11}.0^{23,27}] heptacosa-1(26),5(14),6(11), 7,9,12,21,23(27),24-nonaen-4-one]
10 | 69 nM | COc1cc(C(=O)N2CCC[C@@H](N)C2)cc2nc(-c3cc4ccc5nc4n3C[C@@H]3C[C@H]3CCCC(C)C(=O)N[C@@H]5C)n(C)c12 (stereo partly shown) [Example 272, (3~{R},5~{R},12~{R})-18-[5-[(3~{R})-3-aminopiperidine-1-carbonyl]-7-methoxy-1-methyl-benzimidazol-2-yl]-9,12-dimethyl-1,11,20-triazatetracyclo[11.5.2.0^{3,5}.0^{16,19}] icosa-13(20),14,16(19),17-tetraen-10-one]
11 | 61 nM | C[C@H]1NC(=O)[C@@]2(C)C[C@@H]2C/C=C/C(F)(F)Cn2c(-c3nc4cc(C(=O)N[C@H]5CNCC[C@@H]5F)c(F)cc4n3C)cc3ccc1nc32 [Example 552, 2-[(2~{R},5~{S},7~{S}, 9~{E})-11,11-difluoro-2,5-dimethyl-4-oxo-3,13,19-triazatetracyclo[11.5.2.0^ {5,7}.0^{16,20}]icosa-1(19),9,14,16(20), 17-pentaen-14-yl]-6-fluoro-~{N}-[(3~{S},4~ {S})-4-fluoro-3-piperidyl]-1-methyl-benzimidazole-5-carboxamide]
12 | 398 nM | COC[C@@H]1[C@H](N)CCCN1C(=O)c1cc(OC)c2c(c1)nc(-c1cc3ccc4nc3n1CCCCC[C@@H]1C[C@H]1C(=O)N[C@@H]4C)n2C [Example 411, (2~{R},5~{R},7~{R})-14-[5-[(2~{S},3~{R})-3-amino-2-(methoxymethyl)piperidine-1-carbonyl]-7-methoxy-1-methyl-benzimidazol-2-yl]-2-methyl-3,13,19-triazatetracyclo[11.5.2.0^{5,7}.0^{16,20}] icosa-1(19),14,16(20),17-tetraen-4-one]
13 | 32 nM | COc1cc(C(=O)N2[C@H]3CC[C@@H]2[C@H](N)C3)cc2nc(-c3cc4ccc5nc4n3C[C@H]3C[C@@H]3COCCC(=O)N[C@@H]5C)n(C)c12 [Example 217, (3~{S},5~{S},12~{R})-18-[5-[(1~{R},2~{R},4~{S})-2-amino-7-azabicyclo[2.2.1]heptane-7-carbonyl]-7-methoxy-1-methyl-benzimidazol-2-yl]-12-methyl-7-oxa-1,11,20-triazatetracyclo[11.5.2.0^{3,5}.0^{16,19}] icosa-13(20),14,16(19),17-tetraen-10-one]
